Data from patent US20260132132A1, “3A,4,5,6-TETRAHYDRO-1 H-PYRAZOLO[3,4-C]PYRIDIN-7(7AH)-ONE DERIVATIVES AS FACTOR XIIA INHIBITORS” (KALVISTA PHARMACEUTICALS LIMITED, priority 2022, published 2026).

How the values were obtained:
Type in all cases: biochemical
[1] = molecular target: T1, Human Factor XIIa (hFXIIa) (Homo sapiens, UniProt P00748); experiment: Determination of Human Factor XIIa (hFXIIa) inhibition, fluorogenic substrate IC50 assay; conditions: fluorogenic substrate H-DPro-Phe-Arg-AFC at Km, 25° C., read-out: Human FXIIa IC50
T1 construct: purchased Enzyme Research Laboratories
T1 sequence (P00748 373-615 limits assumed): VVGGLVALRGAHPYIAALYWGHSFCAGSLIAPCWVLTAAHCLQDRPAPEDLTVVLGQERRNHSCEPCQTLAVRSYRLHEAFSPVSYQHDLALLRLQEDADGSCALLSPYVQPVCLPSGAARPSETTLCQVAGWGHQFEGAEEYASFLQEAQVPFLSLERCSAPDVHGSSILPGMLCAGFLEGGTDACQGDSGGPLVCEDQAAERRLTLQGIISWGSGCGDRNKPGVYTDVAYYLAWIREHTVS
T1 sequence (P00748 20-372 partner limits assumed): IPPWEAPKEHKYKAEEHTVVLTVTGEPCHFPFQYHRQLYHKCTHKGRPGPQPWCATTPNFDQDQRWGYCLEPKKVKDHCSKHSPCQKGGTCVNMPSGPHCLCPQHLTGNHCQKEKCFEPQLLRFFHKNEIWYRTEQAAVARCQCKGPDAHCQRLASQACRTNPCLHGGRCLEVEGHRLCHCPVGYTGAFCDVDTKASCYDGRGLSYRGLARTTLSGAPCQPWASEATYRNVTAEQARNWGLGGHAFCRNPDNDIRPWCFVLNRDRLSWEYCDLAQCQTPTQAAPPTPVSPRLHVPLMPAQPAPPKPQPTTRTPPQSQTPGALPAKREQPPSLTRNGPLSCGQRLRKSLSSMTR
Method: Determination of Human Factor XIIa (hFXIIa) inhibition
The Km for the cleavage of the substrate by hFXIIa was determined by standard transformation of the Michaelis-Menten equation, with subsequent inhibition assays performed at substrate Km concentration.

FXa = FXa (Homo sapiens, UniProt P00742); experiment: Related protease inhibition: FXa, fluorogenic substrate; conditions: fluorogenic substrate at Km, 25° C., H1-H3 = % activity at 40 μM; for activity at 40 µM: read-out: IC50 (human FXa) nM
Method: (§1) Human serine protease enzyme Plasma Kallikrein, KLK1, FXa, Plasmin, Thrombin and Trypsin were assayed for enzymatic activity using an appropriate fluorogenic substrate at Km concentration, FXIa at fixed substrate concentration of 100 μM and various concentrations of the test compound.

Thrombin = Thrombin (Homo sapiens, UniProt P00734); experiment: Related protease inhibition: Thrombin, fluorogenic substrate; conditions: fluorogenic substrate at Km, 25° C., H1-H3 = % activity at 40 μM; for activity at 40 µM: read-out: IC50 (human thrombin) nM
Method: as §1

FXa, sequence (P00742 235-488 limits assumed): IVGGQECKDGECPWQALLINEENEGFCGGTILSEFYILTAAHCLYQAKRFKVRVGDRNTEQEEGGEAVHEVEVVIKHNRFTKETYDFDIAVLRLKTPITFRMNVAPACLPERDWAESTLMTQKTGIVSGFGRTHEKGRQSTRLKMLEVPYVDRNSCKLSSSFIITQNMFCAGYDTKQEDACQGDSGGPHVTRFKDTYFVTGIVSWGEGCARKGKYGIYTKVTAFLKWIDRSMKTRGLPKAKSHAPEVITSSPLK
FXa, sequence (P00742 41-179 partner limits assumed): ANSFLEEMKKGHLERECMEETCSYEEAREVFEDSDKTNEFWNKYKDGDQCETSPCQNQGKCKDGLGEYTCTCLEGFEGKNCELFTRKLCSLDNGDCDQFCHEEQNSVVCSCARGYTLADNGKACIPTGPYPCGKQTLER

| Structure (SMILES) | IC50 [1] [nM] | activity at 40 µM (FXa) [%] | activity at 40 µM (Thrombin) [%] | IC50 (FXa) [µM] | IC50 (Thrombin) [µM] |
| --- | --- | --- | --- | --- | --- |
| CN1CCc2ccc(N3CCc4c(C(=O)N[C@@H]5COC[C@H]5O)nn(-c5cccc(Cl)c5)c4C3=O)cc2C1=O [Example 1411, 1-(3-chlorophenyl)-N-((3R,4S)-4-hydroxytetrahydrofuran-3-yl)-6-(2-methyl-1-oxo-1,2,3,4-tetrahydroisoquinolin-7-yl)-7-oxo-4,5,6,7-tetrahydro-1H-pyrazolo[3,4-c]pyridine-3-carboxamide] | 300 to 1000 | > 80 | > 80 |  |  |
| CCNC(=O)c1nn(-c2cccc(Cl)c2)c2c1CCN(c1ccc3c(c1)C(=O)N(C)C1CC3C1)C2=O [Example 1434, 1-(3-chlorophenyl)-N-ethyl-6-(2-methyl-1-oxo-2,3,4,5-tetrahydro-1H-3,5-methanobenzo[c]azepin-8-yl)-7-oxo-4,5,6,7-tetrahydro-1H-pyrazolo[3,4-c]pyridine-3-carboxamide] | 1000 to 3000 | 20 to 80 | 20 to 80 |  |  |
| CCNC(=O)c1nn(-c2cccc(Cl)c2)c2c1CCN(c1cccc(N3C4CCC3CN(C)C4)c1)C2=O [Example 1436, 1-(3-chlorophenyl)-N-ethyl-6-(3-(3-methyl-3,8-diazabicyclo[3.2.1]octan-8-yl)phenyl)-7-oxo-4,5,6,7-tetrahydro-1H-pyrazolo[3,4-c]pyridine-3-carboxamide] | 3000 to 10000 | > 80 | > 80 |  |  |
| CCNC(=O)c1nn(-c2cccc(Cl)c2)c2c1CCN(c1cccc(N3CCOCC3=O)c1)C2=O [Example 1426, 1-(3-chlorophenyl)-N-ethyl-7-oxo-6-(3-(3-oxomorpholino)phenyl)-4,5,6,7-tetrahydro-1H-pyrazolo[3,4-c]pyridine-3-carboxamide] | 10000 to 40000 | 20 to 80 | 20 to 80 |  |  |
| Cc1cc(CNC(=O)c2nn(-c3cccc(Cl)c3)c3c2CCN(c2ccc4c(c2)C(=O)N(CC(F)(F)F)CCO4)C3=O)n[nH]1 [Example 1378, 1-(3-chlorophenyl)-N-((5-methyl-1H-pyrazol-3-yl)methyl)-7-oxo-6-(5-oxo-4-(2,2,2-trifluoroethyl)-2,3,4,5-tetrahydrobenzo[f][1,4]oxazepin-7-yl)-4,5,6,7-tetrahydro-1H-pyrazolo[3,4-c]pyridine-3-carboxamide] | 10 to 100 |  |  | 10 to 40 | 10 to 40 |
| CCNC(=O)c1nn(-c2ccc(O)c(Cl)c2)c2c1CCN(c1ccc3c(c1)C(=O)N(C)CC3)C2=O [Example 2054, 1-(3-chloro-4-hydroxyphenyl)-N-ethyl-6-(2-methyl-1-oxo-1,2,3,4-tetrahydroisoquinolin-7-yl)-7-oxo-4,5,6,7-tetrahydro-1H-pyrazolo[3,4-c]pyridine-3-carboxamide] | 3000 to 10000 | > 80 | > 80 |  |  |
| COc1ccc(CNC(=O)c2nn(-c3cccc(Cl)c3)c3c2CCN(c2ccc4c(c2)C(=O)N(C)CC4)C3=O)cn1 [Example 1235, 1-(3-chlorophenyl)-N-((6-methoxypyridin-3-yl)methyl)-6-(2-methyl-1-oxo-1,2,3,4-tetrahydroisoquinolin-7-yl)-7-oxo-4,5,6,7-tetrahydro-1H-pyrazolo[3,4-c]pyridine-3-carboxamide] | 100 to 300 |  |  | > 40 |  |
| O=C(NCC1CC1)c1nn(-c2cccc(Cl)c2)c2c1CCN(c1ccc3c(c1)CN(CCO)CC31CC1)C2=O [Example 1143, 1-(3-chlorophenyl)-N-(cyclopropylmethyl)-6-(2′-(2-hydroxyethyl)-2′,3′-dihydro-1′H-spiro[cyclopropane-1,4′-isoquinolin]-7′-yl)-7-oxo-4,5,6,7-tetrahydro-1H-pyrazolo[3,4-c]pyridine-3-carboxamide] | 100 to 300 |  |  | 3 to 10 |  |
| COc1ccncc1CNC(=O)c1nn(-c2cccc(Cl)c2)c2c1CCN(c1ccc3c(c1)C(=O)N(C)CC3)C2=O [Example 1271, 1-(3-chlorophenyl)-N-((4-methoxypyridin-3-yl)methyl)-6-(2-methyl-1-oxo-1,2,3,4-tetrahydroisoquinolin-7-yl)-7-oxo-4,5,6,7-tetrahydro-1H-pyrazolo[3,4-c]pyridine-3-carboxamide] | 100 to 300 |  |  | > 40 |  |
| Cc1cc(CNC(=O)CN2CCOc3ccc(N4CCc5c(C(=O)NCc6cc(C)n(C)n6)nn(-c6cccc(Cl)c6)c5C4=O)cc3C2=O)nn1C [Example 1383, 1-(3-chlorophenyl)-N-((1,5-dimethyl-1H-pyrazol-3-yl)methyl)-6-(4-(2-(((1,5-dimethyl-1H-pyrazol-3-yl)methyl)amino)-2-oxoethyl)-5-oxo-2,3,4,5-tetrahydrobenzo[f][1,4]oxazepin-7-yl)-7-oxo-4,5,6,7-tetrahydro-1H-pyrazolo[3,4-c]pyridine-3-carboxamide] | 10 to 100 |  |  | 3 to 10 |  |
| CCNC(=O)c1nn(-c2cccc(Cl)c2)c2c1CCN(c1cccc(N3C(=O)CC[C@H]3C)c1)C2=O [Example 1397, (R)-1-(3-chlorophenyl)-N-ethyl-6-(3-(2-methyl-5-oxopyrrolidin-1-yl)phenyl)-7-oxo-4,5,6,7-tetrahydro-1H-pyrazolo[3,4-c]pyridine-3-carboxamide] | 10000 to 40000 |  |  | > 40 |  |

Other lines, results leading:

| IC50 [1] [nM] | activity at 40 µM (FXa) [%] | activity at 40 µM (Thrombin) [%] | IC50 (FXa) [µM] | IC50 (Thrombin) [µM] | Structure (SMILES) |
| --- | --- | --- | --- | --- | --- |
| 10000 to 40000 | < 20 | 20 to 80 |  |  | CCNC(=O)c1nn(-c2cccc(Cl)c2)c2c1CCN(c1cccc(N3CC4CC4C3)c1)C2=O (centres unmarked) [Example 1431, 6-(3-(3-azabicyclo[3.1.0]hexan-3-yl)phenyl)-1-(3-chlorophenyl)-N-ethyl-7-oxo-4,5,6,7-tetrahydro-1H-pyrazolo[3,4-c]pyridine-3-carboxamide] |
| 10 to 100 |  |  | > 40 | 10 to 40 | CN1CCc2ccc(N3CCc4c(C(=O)NCC5CC5)nn(-c5cc(Cl)cc(CN)c5)c4C3=O)cc2C1=O [Example 2018, 1-(3-(aminomethyl)-5-chlorophenyl)-N-(cyclopropylmethyl)-6-(2-methyl-1-oxo-1,2,3,4-tetrahydroisoquinolin-7-yl)-7-oxo-4,5,6,7-tetrahydro-1H-pyrazolo[3,4-c]pyridine-3-carboxamide] |
| 100 to 300 |  |  | > 40 |  | COc1cc(N2CCc3c(C(=O)NCC4CC4)nn(-c4cccc(Cl)c4)c3C2=O)cc2c1CCN(CCO)C2 [Example 1226, 1-(3-chlorophenyl)-N-(cyclopropylmethyl)-6-(2-(2-hydroxyethyl)-5-methoxy-1,2,3,4-tetrahydroisoquinolin-7-yl)-7-oxo-4,5,6,7-tetrahydro-1H-pyrazolo[3,4-c]pyridine-3-carboxamide] |
| 100 to 300 |  |  | 10 to 40 |  | CCOC(=O)c1nn(-c2cccc(Cl)c2)c2c1CCN(c1cccc(CN3CCCCC3)c1)C2=O [Example 1007, ethyl 1-(3-chlorophenyl)-7-oxo-6-(3-(piperidin-1-ylmethyl)phenyl)-4,5,6,7-tetrahydro-1H-pyrazolo[3,4-c]pyridine-3-carboxylate] |
| 300 to 1000 |  |  | > 40 |  | Cc1cc(CNC(=O)c2nn(-c3cccc(Cl)c3)c3c2CCN(c2ccc4c(c2)C(=O)N(CCO)[C@H](C)CO4)C3=O)n[nH]1 [Example 1373, (R)-1-(3-chlorophenyl)-6-(4-(2-hydroxyethyl)-3-methyl-5-oxo-2,3,4,5-tetrahydrobenzo[f][1,4]oxazepin-7-yl)-N-((5-methyl-1H-pyrazol-3-yl)methyl)-7-oxo-4,5,6,7-tetrahydro-1H-pyrazolo[3,4-c]pyridine-3-carboxamide] |
| 10 to 100 |  |  | 10 to 40 |  | Cc1cn(C)nc1CNC(=O)c1nn(-c2cccc(Cl)c2)c2c1CCN(c1ccc3c(c1)CN(CCO)CC3)C2=O [Example 1157, 1-(3-chlorophenyl)-N-((1,4-dimethyl-1H-pyrazol-3-yl)methyl)-6-(2-(2-hydroxyethyl)-1,2,3,4-tetrahydroisoquinolin-7-yl)-7-oxo-4,5,6,7-tetrahydro-1H-pyrazolo[3,4-c]pyridine-3-carboxamide] |
| 1000 to 3000 |  |  | > 40 |  | CN1CCc2ccc(N3CCc4c(C(=O)NCCC(=O)O)nn(-c5cccc(Cl)c5)c4C3=O)cc2C1=O [Example 1386, 3-(1-(3-chlorophenyl)-6-(2-methyl-1-oxo-1,2,3,4-tetrahydroisoquinolin-7-yl)-7-oxo-4,5,6,7-tetrahydro-1H-pyrazolo[3,4-c]pyridine-3-carboxamido)propanoic acid] |
